Measurements published in patent US20230285598A1, “SULFOXONIUM YLIDE DERIVATIVES AS PROBES FOR CYSTEINE PROTEASE” (Takeda Pharmaceutical Company Limited, priority 2018, published 2023).
Entries after “also recorded” stand apart in the source; their conditions may differ.

Legend:
[1] = molecular target: T1, cathepsin X (Mus musculus, UniProt Q9WUU7); test: Probe labeling of RAW264.7 cell lysates, SDS-PAGE in-gel fluorescence; assay type: biochemical; set-up: protein lysates prepared from RAW264.7 cells; host or cells: RAW264.7; details: Example 6; 0.01-5 µM for 20 minutes
Description: ells were harvested by scraping, washed once with PBS, and resuspended in lysis buffer containing 50 mM citrate [pH 5.5], 0.5% CHAPS, 0.1% Triton X-100, and 4 mM DTT. Cells were incubated on ice for at least 10 minutes with intermittent vortexing followed by centrifugation ([…] at 4° C. or 5 minutes). Cleared supernatants were then transferred to a fresh tube and protein concentration was determined by BCA. Total protein (50 µg) was aliquoted into tubes in a final volume of 20 µl lysis buffer. Where indicated, JPM-OEt or MDV-590 were added from a 100x DMSO stock and incubated at 37° C. or 20 minutes prior to probe addition. The indicated concentration of probe was added from a 100x DMSO stock. Labeling was carried out at 37° C. or 20 minutes (unless otherwise indicated), and the reactions were quenched by the addition of 5x sample buffer (200 mM Tris-Cl [pH 6.8], 8% SDS, 0.04% bromophenol blue, 5% b-mercaptoethanol, and 40% glycerol). Samples were then boiled for five minutes and proteins were resolved on a 15% SDS-PAGE gel. The gels were scanned on a Typhoon 5 flatbed laser scanner at 633/670 nm excitation/emission to detect sCy5 fluorescence.
robe-labeled lysate from above (in sample buffer) was divided into input or pulldown (~50 µg total protein each). The input sample was stored at -20° C. The pulldown sample was diluted in 500 µl IP buffer (PBS [pH 7.4],[…], 1 mM EDTA). Goat anti-cathepsin X antibody (10 µl) was added along with 40 µl slurry of pre-washed Protein A/G agarose beads. Samples were rotated overnight at 4° C. Beads were then washed four times with IP buffer followed by a final wash in 0.9% NaCl. Beads were then resuspended in 2x sample buffer and boiled. The pulldown supernatants, alongside the input samples, were analysed by fluorescent SDS-PAGE as above.
In Example 3, the sulfoxonium ylide probe sCy5-Val-SY was incubated with protein lysates prepared from RAW264.7 cells, an immortalized mouse macrophage line that contains high levels of active cysteine cathepsins (Verdoes et al., 2013). Cells were lysed in citrate buffer (pH 5.5) to provide optimal conditions for cathepsin activation, and the probe was added • at 1 µM for 20 minutes • at various concentrations (0 µM, 0.01 µM, 0.05 µM, 0.1 µM, 0.5 µM or 1 µM) for 20 minutes; or • at 1 µM for varying times (0, 1, 2, 5, 10, 20, and 30 minutes).
Then the lysates were resolved by SDS-PAGE and the gel scanned for sCy5 fluorescence using a flatbed laser scanner.
The labeling profile of sCy5-Val-SY was compared to that of BMV109, the pan-cathepsin probe, by repeating the above experiment using BMV109 as the probe added at 1 µM for 20 minutes.
In Example 6, a small library of sulfoxonium ylide probes with varying amino acids in the P1 position as prepared in accordance with Example 1 was tested in RAW264.7 lysates, and compared to BMV109. Each probe was added with increasing probe concentrations of 0.01 µM, 0.05 µM, 0.1 µM, 0.5 µM, 1 µM and 5 µM for 20 minutes).

[2] = molecular target: cathepsin X (Homo sapiens, UniProt Q9UBR2); test: Labeling of human oral squamous cell carcinoma tissue lysates, in-gel fluorescence; assay type: biochemical; set-up: Tissues were lysed by sonication in citrate buffer and supernatants were cleared by centrifugation; from tissue; host or cells: human oral squamous cell carcinoma biopsies and patient-matched normal oral mucosa; details: °C5 µM for 20 minutes; 80 µg protein
Source text: To investigate the ability of sCy5-,Nle-SY to label cathepsin X in human tissues, biopsies that were obtained from patients with oral squamous cell carcinoma were used. Normal oral mucosal tissues that were biopsied from the contralateral side of the tongues of the same patients were used as controls.
The human oral squamous cell carcinomas or patient-matched normal oral mucosa were biopsied according to protocols approved by the Institutional Review Board at the New York University Oral Cancer Centre. Biopsies were immediately snap-frozen and stored at -80° C. Tissues were lysed by sonication in citrate buffer and supernatants were cleared by centrifugation. Total protein concentration was assessed by BCA assay and 80 µg were labelled with Cy5-Nle-SY: The lysates prepared from the oral squamous cell carcinoma tissue or patient-matched normal oral mucosa were incubated with sCy5-Nle-SY (°C5 µM for 20 minutes) and labeling was analyzed by in-gel fluorescence (fluorescent SDS-PAGE). Samples were also immunoblotted to determine total cathepsin X expression (n=10). Additionally, the sCy5-Nle-SY-labeled cancer lysates were immunoprecipitated with a cathepsin X-specific antibody to verify the identity of the labeled protein.

[3] = molecular target: T1, cathepsin X; test: In vivo probe labeling in mice (intravenous), tissues analyzed by fluorescent SDS-PAGE
Description: For in vivo labeled tissues, mice were first injected intravenously via the tail vein with sCy5-Nle-SY, BMV109, or sCy5-Nle-AOMK (50 nmol in 100 µl 10% DMSO/PBS or vehicle control). Tissues were harvested and analyzed as above except without further probe addition.
In Example 10, the probe sCy5-Nle-SY, vehicle control/no probe (NP) or BMV109 were injected into mice intravenously. After two hours of circulation, tissues were harvested, lysed, and analyzed for probe labeling by fluorescent SDS-PAGE.
In Example 12, the AOMK probe sCy5-Nle-AOMK was tested in vivo and its labeling in tissues was analyzed. The probe was injected into mice intravenously. After two hours of circulation, tissues were harvested, lysed, and analyzed for probe labeling by fluorescent SDS-PAGE.

[4] = molecular target: T1, cathepsin X; test: Probe labeling of kidney lysates, in-gel fluorescence; assay type: biochemical; details: 0.1-5 µM for 20 minutes
Description: issues were harvested from healthy mice and snap frozen. At the time of analysis, lysis buffer was added at 10x volume:weight, and tissues were sonicated on ice. Cleared lysates were labeled with the indicated probe and analyzed as above.
In Example 7, sulfoxonium ylide probes as prepared in accordance with Example 1 were tested in kidney lysates and the results compared to BMV109. The sulfoxonium ylide probes (and BMV109) were each added with increasing probe concentrations of 0.1 µM, 0.5 µM, 1 µM and 5 µM for 20 minutes.

[5] = intravenous 50 nmol, two hours of circulation

T1 sequence (Q9WUU7 64-306): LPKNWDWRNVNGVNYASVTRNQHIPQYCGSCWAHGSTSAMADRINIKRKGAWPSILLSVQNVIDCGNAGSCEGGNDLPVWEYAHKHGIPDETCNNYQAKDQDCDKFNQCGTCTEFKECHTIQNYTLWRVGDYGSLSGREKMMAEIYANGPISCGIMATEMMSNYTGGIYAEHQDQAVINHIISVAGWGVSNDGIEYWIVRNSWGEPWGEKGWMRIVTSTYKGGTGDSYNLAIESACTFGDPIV
Sequence of cathepsin X (Homo sapiens, UniProt Q9UBR2) (Q9UBR2 62-303): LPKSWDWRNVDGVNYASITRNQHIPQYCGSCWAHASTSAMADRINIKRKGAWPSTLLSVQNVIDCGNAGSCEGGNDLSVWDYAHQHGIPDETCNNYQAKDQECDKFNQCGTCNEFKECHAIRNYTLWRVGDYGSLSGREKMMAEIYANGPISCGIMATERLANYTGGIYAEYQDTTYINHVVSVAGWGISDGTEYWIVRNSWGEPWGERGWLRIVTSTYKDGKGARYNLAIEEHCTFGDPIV

## CCCC[C@H](NC(=O)CCCCCN1/C(=C/C=C/C=C/C2=[N+](CC)c3ccc(S(=O)(=O)[O-])cc3C2(C)C)C(C)(C)c2cc(S(=O)(=O)O)ccc21)C(=O)C=S(C)(C)=O [sCy5-Nle-SY]
[1]
  potency of labeling in RAW264.7 lysates: the most potent
[2]
  labeling of cathepsin X in human oral squamous cell carcinoma lysates: clear and selective labeling of cathepsin X was observed
[3]; [5]
  labeling of cathepsin S, B and L in tissues after in vivo administration: some labeling of cathepsin S was also observed; also recorded: does not label cathepsin B or L
  labeling of cathepsin X in tissues after in vivo administration: Labeling of cathepsin X was observed in liver, kidney, colon, stomach, and spleen
[3]; intravenous, two hours, compared to BMV109
  overall specificity profile in vivo: clearly improved compared to BMV109
[4]
  potency and specificity of labeling in kidney lysates: the most potency and specificity for cathepsin X
